What follows are molecules tested against T1, BACE1 (Homo sapiens, UniProt P56817) (assay: Cellular Aβ-lowering assay (Abeta 40 AlphaLISA)). Settings: HEK293 APP cells, 18-20 hrs incubation, Aβ 40 in culture supernatant; read-out: BACE1 cell act. Aβ40 IC50.
T1 construct: endogenous in cells; host or cells: HEK293 APP cells
Type: cell-based
Protocol: Cellular Aβ-Lowering Assay:
The Abeta 40 AlphaLISA Assay can be used. The HEK293 APP cells were seeded in 96 well Microtiter plates in cell culture medium (Iscove's, plus 10% (vv) fetal bovine serum, penicillinstreptomycin) to about 80% confluency and the compounds were added at a 3× concentration in 13 volume of culture medium (final DMSO concentration was kept at 1% vv). After 18-20 hrs incubation at 37° C. and 5% CO2 in a humidified incubator, the culture supernatants were harvested for the determination of Aβ 40 concentrations using Perkin-Elmer Human Amyloid beta 1-40 (high specificity) Kit (Cat# AL275C).
Levels of Aβ 40 in the culture supernatants were calculated as percentage of maximum signal (cells treated with 1% DMSO without inhibitor). The IC50 values were calculated using the Excel XLfit software.

T1 sequence (P56817 46-501): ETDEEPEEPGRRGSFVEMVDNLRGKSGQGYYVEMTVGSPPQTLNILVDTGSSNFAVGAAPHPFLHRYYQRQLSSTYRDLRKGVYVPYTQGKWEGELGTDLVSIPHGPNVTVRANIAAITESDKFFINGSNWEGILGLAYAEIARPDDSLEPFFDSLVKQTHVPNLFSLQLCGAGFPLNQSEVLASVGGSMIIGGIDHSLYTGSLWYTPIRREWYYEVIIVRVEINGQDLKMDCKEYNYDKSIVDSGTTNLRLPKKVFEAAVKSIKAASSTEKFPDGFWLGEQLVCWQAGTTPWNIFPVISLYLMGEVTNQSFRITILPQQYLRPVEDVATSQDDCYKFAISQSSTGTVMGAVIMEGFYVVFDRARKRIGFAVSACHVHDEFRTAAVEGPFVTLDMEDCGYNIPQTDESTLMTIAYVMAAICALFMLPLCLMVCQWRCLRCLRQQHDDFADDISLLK

Row | IC50 [nM] | SMILES
1 | 0.6 | CC#CCOc1cnc(C(=O)Nc2ccc(F)c([C@]3(CF)C[C@@H](C(F)(F)F)OC(N)=N3)c2)cn1 [Example 38, N-(3-((4S,6S)-2-Amino-4-(fluoromethyl)-6-(trifluoromethyl)-5,6-dihydro-4H-1,3-oxazin-4-yl)-4-fluorophenyl)-5-(but-2-ynyloxy)pyrazine-2-carboxamide]
2 | 0.4 | NC1=N[C@](CF)(c2cc(NC(=O)c3cnc(OC(F)F)cn3)ccc2F)C[C@@H](C(F)(F)F)O1 [Example 39, N-(3-((4S,6S)-2-Amino-4-(fluoromethyl)-6-(trifluoromethyl)-5,6-dihydro-4H-1,3-oxazin-4-yl)-4-fluorophenyl)-5-(difluoromethoxy)pyrazine-2-carboxamide]
3 | 29 | NC1=N[C@](CF)(c2cc(NC(=O)c3cnc(OCC(F)F)cn3)ccc2F)C[C@@H](C(F)(F)F)O1 [Example 40, N-(3-((4S,6S)-2-Amino-4-(fluoromethyl)-6-(trifluoromethyl)-5,6-dihydro-4H-1,3-oxazin-4-yl)-4-fluorophenyl)-5-(2,2-difluoroethoxyl)pyrazine-2-carboxamide]
4 | 17 | NC1=N[C@](CF)(c2cc(NC(=O)c3cnc(OCC(F)(F)F)cn3)ccc2F)C[C@@H](C(F)(F)F)O1 [Example 41, N-(3-((4S,6S)-2-Amino-4-(fluoromethyl)-6-(trifluoromethyl)-5,6-dihydro-4H-1,3-oxazin-4-yl)-4-fluorophenyl)-5-(2,2,2-trifluoroethoxyl)pyrazine-2-carboxamide]
5 | 64 | Cc1cnc(C(=O)Nc2ccc(F)c([C@]3(CF)C[C@@H](C(F)(F)F)OC(N)=N3)c2)cn1 [Example 42, N-(3-((4S,6S)-2-Amino-4-(fluoromethyl)-6-(trifluoromethyl)-5,6-dihydro-4H-1,3-oxazin-4-yl)-4-fluorophenyl)-5-methylpyrazine-2-carboxamide]
6 | 3 | NC1=N[C@](CF)(c2cc(NC(=O)c3cnc(OCF)cn3)ccc2F)C[C@@H](C(F)(F)F)O1 [Example 43, N-(3-((4S,6S)-2-Amino-4-(fluoromethyl)-6-(trifluoromethyl)-5,6-dihydro-4H-1,3-oxazin-4-yl)-4-fluorophenyl)-5-(fluoromethoxy)pyrazine-2-carboxamide]
7 | 39 | NC1=N[C@](CF)(c2cc(NC(=O)c3cnc(C(F)F)cn3)ccc2F)C[C@@H](C(F)(F)F)O1 [Example 45, N-(3-((4S,6S)-2-Amino-4-(fluoromethyl)-6-(trifluoromethyl)-5,6-dihydro-4H-1,3-oxazin-4-yl)-4-fluorophenyl)-5-(difluoromethyl)pyrazine-2-carboxamide]
8 | 1 | NC1=N[C@](CF)(c2cc(NC(=O)c3coc(CF)n3)ccc2F)C[C@@H](C(F)(F)F)O1 [Example 47, N-(3-((4S,6S)-2-Amino-4-(fluoromethyl)-6-(trifluoromethyl)-5,6-dihydro-4H-1,3-oxazin-4-yl)-4-fluorophenyl)-2-(fluoromethyl)oxazole-4-carboxamide]
9 | 520 | N#Cc1ccc(C(=O)Nc2ccc(F)c([C@]3(C(F)F)C[C@H](C(F)(F)F)OC(N)=N3)c2)nc1 [Example 48, N-(3-((4S,6R)-2-Amino-4-(difluoromethyl)-6-(trifluoromethyl)-5,6-dihydro-4H-1,3-oxazin-4-yl)-4-fluorophenyl)-5-cyanopicolinamide]
10 | 82 | N#Cc1ccc(C(=O)Nc2ccc(F)c([C@]3(C(F)F)C[C@@H](C(F)(F)F)OC(N)=N3)c2)nc1 [Example 49, N-(3-((4S,6S)-2-Amino-4-(difluoromethyl)-6-(trifluoromethyl)-5,6-dihydro-4H-1,3-oxazin-4-yl)-4-fluorophenyl)-5-cyanopicolinamide]

— patent publication US9067926B2, “Fluoromethyl-5,6-dihydro-4H-[1,3]OXAZINES” (F. Hoffmann-La Roche AG, priority 2012, dated 2015)
